From patent publication US11254663B2 (BRISTOL-MYERS SQUIBB COMPANY, priority 2019, dated 2022) come the findings set out here.

FXR, sequence (Q96RI1 262-486): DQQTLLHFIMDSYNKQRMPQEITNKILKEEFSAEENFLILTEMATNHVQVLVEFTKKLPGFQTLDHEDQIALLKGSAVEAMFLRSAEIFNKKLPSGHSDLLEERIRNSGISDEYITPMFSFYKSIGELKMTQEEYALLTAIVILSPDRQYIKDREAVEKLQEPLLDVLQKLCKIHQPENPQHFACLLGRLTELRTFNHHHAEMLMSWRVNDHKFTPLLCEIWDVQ

The target of the assay is FXR (Homo sapiens (Human), UniProt Q96RI1). Put plainly: transient human FXR/Gal4-luciferase reporter assay. Conditions: Gal4-hFXR fusion construct, HEK293 reporter cells; response relative to 8 μM GW-4064. The assay is classed as cell-based. A digest of the protocol:
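HEK293 cells stably carrying a 5×Gal4 response element–firefly luciferase reporter were transiently transfected overnight with a Gal4 DBD–human FXR LBD fusion plasmid. Compound was added in DMSO and cells were incubated overnight at 37 °C, 5% CO2. Activity was read as Steady-Glo luminescence.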
(In general: Reporter assays use an easily measured gene product as a stand-in for the process of interest.)
What is called EC50 is the concentration needed to bring the measured effect to its halfway point. In turn, `COc1ccc(-c2cccc(N(CC34CCC(c5nc(C(C)C)no5)(CC3)CC4)C(=O)C34CC(F)(C3)C4)c2)cc1` [Example 377, 3-fluoro-N-((4-(3-isopropyl-1,2,4-oxadiazol-5-yl)bicyclo[2.2.2]octan-1-yl)methyl)-N-(4′-methoxy-[1,1′-biphenyl]-3-yl)bicyclo[1.1.1]pentane-1-carboxamide] returned an EC50 of 52 nM.
For `Cc1nc2ccc(-c3cccc(N(CC45CCC(c6nc(C(C)C)no6)(CC4)CC5)C(=O)C45CC(F)(C4)C5)c3)cc2s1` [Example 378, 3-fluoro-N-((4-(3-isopropyl-1,2,4-oxadiazol-5-yl)bicyclo[2.2.2]octan-1-yl)methyl)-N-(3-(2-methylbenzo[d]thiazol-6-yl)phenyl)bicyclo[1.1.1]pentane-1-carboxamide] the value was 53 nM.
For `CC(C)c1noc(C23CCC(CN(C(=O)C45CC(F)(C4)C5)c4cccc(-c5ccc(NS(=O)(=O)C6CC6)cc5)c4)(CC2)CC3)n1` [Example 379, N-(4′-(cyclopropanesulfonamido)-[1,1′-biphenyl]-3-yl)-3-fluoro-N-((4-(3-isopropyl-1,2,4-oxadiazol-5-yl)bicyclo[2.2.2]octan-1-yl)methyl)bicyclo[1.1.1]pentane-1-carboxamide] the value was 132 nM; for `CC(C)c1noc(C23CCC(CN(C(=O)C45CC(F)(C4)C5)c4cccc(-c5ccc(C(F)(F)F)cc5)c4)(CC2)CC3)n1` [Example 380, 3-fluoro-N-((4-(3-isopropyl-1,2,4-oxadiazol-5-yl)bicyclo[2.2.2]octan-1-yl)methyl)-N-(4′-(trifluoromethyl)-[1,1′-biphenyl]-3-yl)bicyclo[1.1.1]pentane-1-carboxamide], 283 nM.
The figure for `CCOc1ccc(-c2cccc(N(CC34CCC(c5nc(C(C)C)no5)(CC3)CC4)C(=O)C34CC(F)(C3)C4)c2)cn1` [Example 381, N-(3-(6-ethoxypyridin-3-yl)phenyl)-3-fluoro-N-((4-(3-isopropyl-1,2,4-oxadiazol-5-yl)bicyclo[2.2.2]octan-1-yl)methyl)bicyclo[1.1.1]pentane-1-carboxamide] is 40 nM; for `COc1ccc(-c2cccc(N(CC34CCC(c5nc(C(C)C)no5)(CC3)CC4)C(=O)C34CC(F)(C3)C4)c2)cn1` [Example 382, 3-fluoro-N-((4-(3-isopropyl-1,2,4-oxadiazol-5-yl)bicyclo[2.2.2]octan-1-yl)methyl)-N-(3-(6-methoxypyridin-3-yl)phenyl)bicyclo[1.1.1]pentane-1-carboxamide] it is 98 nM.
`COc1ncc(-c2cccc(N(CC34CCC(c5nc(C(C)C)no5)(CC3)CC4)C(=O)C34CC(F)(C3)C4)c2)cn1` [Example 383, 3-Fluoro-N-((4-(3-isopropyl-1,2,4-oxadiazol-5-yl)bicyclo[2.2.2]octan-1-yl)methyl)-N-(3-(2-methoxypyrimidin-5-yl)phenyl)bicyclo[1.1.1]pentane-1-carboxamide]: the EC50 turned out to be 47 nM.
Consider `CC(C)c1noc(C23CCC(CN(C(=O)C45CC(F)(C4)C5)c4cccc(-c5cnc(C(F)(F)F)nc5)c4)(CC2)CC3)n1` [Example 384, 3-fluoro-N-((4-(3-isopropyl-1,2,4-oxadiazol-5-yl)bicyclo[2.2.2]octan-1-yl)methyl)-N-(3-(2-(trifluoromethyl)pyrimidin-5-yl)phenyl)bicyclo[1.1.1]pentane-1-carb oxamide], for which the EC50 is 184 nM.
As to `CC(C)c1noc(C23CCC(CN(C(=O)C45CC(F)(C4)C5)c4cccc(-c5cnc(C6CC6)nc5)c4)(CC2)CC3)n1` [Example 385, N-(3-(2-cyclopropylpyrimidin-5-yl)phenyl)-3-fluoro-N-((4-(3-isopropyl-1,2,4-oxadiazol-5-yl)bicyclo[2.2.2]octan-1-yl)methyl)bicyclo[1.1.1]pentane-1-carboxamide], the midpoint of the response, the EC50, lay at 35 nM.
For `CC(C)c1noc(C23CCC(CN(C(=O)C45CC(F)(C4)C5)c4cccc(-c5ccc6c(c5)OC(F)(F)O6)c4)(CC2)CC3)n1` [Example 386, N-(3-(2,2-difluorobenzo[d][1,3]dioxol-5-yl)phenyl)-3-fluoro-N-((4-(3-isopropyl-1,2,4-oxadiazol-5-yl)bicyclo[2.2.2]octan-1-yl)methyl)bicyclo[1.1.1]pentane-1-carboxamide] the value was 274 nM; for `CC(C)c1noc(C23CCC(CN(C(=O)C45CC(F)(C4)C5)c4cccc(-c5ccc(OC(F)F)cc5)c4)(CC2)CC3)n1` [Example 387, N-(4′-(difluoromethoxy)-[1,1′-biphenyl]-3-yl)-3-fluoro-N-((4-(3-isopropyl-1,2,4-oxadiazol-5-yl)bicyclo[2.2.2]octan-1-yl)methyl)bicyclo[1.1.1]pentane-1-carboxamide], 47 nM; for `CC(C)c1noc(C23CCC(CN(C(=O)C45CC(F)(C4)C5)c4cccc(-c5ccc(C(F)(F)F)nc5)c4)(CC2)CC3)n1` [Example 388, 3-fluoro-N-((4-(3-isopropyl-1,2,4-oxadiazol-5-yl)bicyclo[2.2.2]octan-1-yl)methyl)-N-(3-(6-(trifluoromethyl)pyridin-3-yl)phenyl)bicyclo[1.1.1]pentane-1-carboxamide], 906 nM.
For `Cc1nc2ncc(-c3cccc(N(CC45CCC(c6nc(C(C)C)no6)(CC4)CC5)C(=O)C45CC(F)(C4)C5)c3)cc2s1` [Example 389, 3-fluoro-N-((4-(3-isopropyl-1,2,4-oxadiazol-5-yl)bicyclo[2.2.2]octan-1-yl)methyl)-N-(3-(2-methylthiazolo[4,5-b]pyridin-6-yl)phenyl)bicyclo[1.1.1]pentane-1-carboxamide] the value was 61 nM; for `CC(C)c1noc(C23CCC(CN(C(=O)C45CC(F)(C4)C5)c4cccc(-c5ccc(NS(=O)(=O)C(F)(F)F)cc5)c4)(CC2)CC3)n1` [Example 390, 3-fluoro-N-((4-(3-isopropyl-1,2,4-oxadiazol-5-yl)bicyclo[2.2.2]octan-1-yl)methyl)-N-(4′-((trifluoromethyl)sulfonamido)-[1,1′-biphenyl]-3-yl)bicyclo[1.1.1]pentane-1-carboxamide], 96 nM.
The figure for `COCc1ccc(-c2cccc(N(CC34CCC(c5nc(C(C)C)no5)(CC3)CC4)C(=O)C34CC(F)(C3)C4)c2)cn1` [Example 391, 3-fluoro-N-((4-(3-isopropyl-1,2,4-oxadiazol-5-yl)bicyclo[2.2.2]octan-1-yl)methyl)-N-(3-(6-(methoxymethyl)pyridin-3-yl)phenyl)bicyclo[1.1.1]pentane-1-carboxamide] is 147 nM.
Take `COCc1ccc(-c2cccc(N(CC34CCC(c5nc(C(C)C)no5)(CC3)CC4)C(=O)C34CC(F)(C3)C4)c2)cc1` [Example 392, 3-fluoro-N-((4-(3-isopropyl-1,2,4-oxadiazol-5-yl)bicyclo[2.2.2]octan-1-yl)methyl)-N-(4′-(methoxymethyl)-[1,1′-biphenyl]-3-yl)bicyclo[1.1.1]pentane-1-carboxamide]: the EC50 stood at 183 nM. The EC50 values of the last two compounds are within 1.5-fold of each other.
For `Cc1cnc(-c2cccc(N(CC34CCC(c5nc(C(C)C)no5)(CC3)CC4)C(=O)C34CC(F)(C3)C4)c2)nc1` [Example 393, 3-fluoro-N-((4-(3-isopropyl-1,2,4-oxadiazol-5-yl)bicyclo[2.2.2]octan-1-yl)methyl)-N-(3-(5-methylpyrimidin-2-yl)phenyl)bicyclo[1.1.1]pentane-1-carboxamide] the value was 49 nM.
`CCc1cnc(-c2cccc(N(CC34CCC(c5nc(C(C)C)no5)(CC3)CC4)C(=O)C34CC(F)(C3)C4)c2)nc1` [Example 394, N-(3-(5-ethylpyrimidin-2-yl)phenyl)-3-fluoro-N-((4-(3-isopropyl-1,2,4-oxadiazol-5-yl)bicyclo[2.2.2]octan-1-yl)methyl)bicyclo[1.1.1]pentane-1-carboxamide] showed an EC50 of 77 nM.
The figure for `CCOc1cnc(-c2cccc(N(CC34CCC(c5nc(C(C)C)no5)(CC3)CC4)C(=O)C34CC(F)(C3)C4)c2)nc1` [Example 395, N-(3-(5-ethoxypyrimidin-2-yl)phenyl)-3-fluoro-N-((4-(3-isopropyl-1,2,4-oxadiazol-5-yl)bicyclo[2.2.2]octan-1-yl)methyl)bicyclo[1.1.1]pentane-1-carboxamide] is 156 nM; for `CCOc1ncc(-c2cccc(N(CC34CCC(c5noc(C6(C)CC6)n5)(CC3)CC4)C(=O)C34CC(F)(C3)C4)c2)cn1` [Example 396, N-(3-(2-ethoxypyrimidin-5-yl)phenyl)-3-fluoro-N-((4-(5-(1-methylcyclopropyl)-1,2,4-oxadiazol-3-yl)bicyclo[2.2.2]octan-1-yl)methyl)bicyclo[1.1.1]pentane-1-carboxamide] it is 46 nM.
For `CC1(c2nc(C34CCC(CN(C(=O)C56CC(F)(C5)C6)c5cccc(-c6ccc(NS(=O)(=O)C7CC7)cc6)c5)(CC3)CC4)no2)CC1` [Example 397, N-(4′-(cyclopropanesulfonamido)-[1,1′-biphenyl]-3-yl)-3-fluoro-N-((4-(5-(1-methylcyclopropyl)-1,2,4-oxadiazol-3-yl)bicyclo[2.2.2]octan-1-yl)methyl) bicyclo[1.1.1]pentane-1-carboxamide], the EC50 was determined as 183 nM.
The figure for `CC1(c2nc(C34CCC(CN(C(=O)C56CC(F)(C5)C6)c5cccc(-c6ccc(NS(C)(=O)=O)cc6)c5)(CC3)CC4)no2)CC1` [Example 398, 3-fluoro-N-((4-(5-(1-methylcyclopropyl)-1,2,4-oxadiazol-3-yl)bicyclo[2.2.2]octan-1-yl)methyl)-N-(4′-(methylsulfonamido)-[1,1′-biphenyl]-3-yl)bicyclo[1.1.1]pentane-1-carboxamide] is 93 nM.
`CCOc1ccc(-c2cccc(N(CC34CCC(c5noc(C6(C)CC6)n5)(CC3)CC4)C(=O)C34CC(F)(C3)C4)c2)cc1` [Example 399, N-(4′-ethoxy-[1,1′-biphenyl]-3-yl)-3-fluoro-N-((4-(5-(1-methylcyclopropyl)-1,2,4-oxadiazol-3-yl)bicyclo[2.2.2]octan-1-yl)methyl)bicyclo[1.1.1]pentane-1-carboxamide]: the EC50 was 58 nM.
